Drawing on patent US11905274B2, “Receptor inhibitors, pharmaceutical compositions comprising the same and use thereof” (BEIJING TIDE PHARMACEUTICAL CO., LTD., priority 2018, dated 2024), this text covers IC50 for 32 compounds.

This assay deals with AT2 Receptor (AT2R) (Homo sapiens (Human), UniProt P50052). Put plainly: Inhibitory activity on AT2 receptor (Tag-lite HTRF, Tb-labeled AT2R cells, angiotensin receptor red agonist). To be noted: 1 h at room temperature. Type of assay: binding.
Sequence of AT2 Receptor (AT2R) (P50052 whole entry): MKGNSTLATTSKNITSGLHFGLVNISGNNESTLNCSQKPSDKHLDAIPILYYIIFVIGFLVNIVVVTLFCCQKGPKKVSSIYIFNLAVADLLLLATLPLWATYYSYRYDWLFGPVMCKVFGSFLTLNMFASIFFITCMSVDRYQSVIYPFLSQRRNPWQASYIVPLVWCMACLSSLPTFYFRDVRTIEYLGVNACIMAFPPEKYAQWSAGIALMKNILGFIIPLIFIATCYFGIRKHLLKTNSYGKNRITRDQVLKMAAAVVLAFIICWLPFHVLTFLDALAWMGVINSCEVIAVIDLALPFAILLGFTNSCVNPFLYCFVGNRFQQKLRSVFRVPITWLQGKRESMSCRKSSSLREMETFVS
`O=C(O)[C@@H]1CN(C(=O)C(c2ccccc2)c2ccccc2)CCN1C(=O)N1c2ccccc2Sc2ccccc21` [Compound C21, (S)-4-(2,2-diphenylacetyl)-1-(10H-phenothiazine-10-carbonyl)piperazine-2-carboxylic acid] came in with an IC50 of 190 nM.

Regarding `O=C(N1CCN(C(=O)N2c3ccccc3C=Cc3ccccc32)[C@H](c2nnn[nH]2)C1)N(c1ccccc1)c1ccccc1` [Compound C31, (S)-4-(5H-dibenzo[b,f]azepine-5-carbonyl)-N,N-diphenyl-3-(1H-tetrazol-5-yl)piperazine-1-carboxamide], the IC50 was determined as 219 nM. This IC50 and that of the compound before are within 1.5-fold of each other.

In turn, `O=C1Nc2ccccc2N(C(=O)N2CCN(C(=O)N(c3ccccc3)c3ccccc3)C[C@H]2C(=O)O)c2ccccc21` [Compound C53, (S)-4-(diphenylcarbamoyl)-1-(11-oxo-10,11-dihydro-5H-dibenzo[b,e][1,4]diazepine-5-carbonyl)piperazine-2-carboxylic acid] yielded an IC50 of 1340 nM.

In turn, `Cc1ccccc1N(C(=O)N1CCN(C(=O)N2c3ccccc3C=Cc3ccccc32)[C@H](C(=O)O)C1)c1ccccc1` [Compound C59, (S)-1-(5H-dibenzo[b,f]azepine-5-carbonyl)-4-(phenyl(orthomethylphenyl)carbamoyl) piperazine-2-carb oxylic acid] registered an IC50 of 67.9 nM. This IC50 is about 20-fold lower than that of the compound before.

Take `O=C(O)[C@@H]1CN(C(=O)N2c3ccccc3CCc3ccccc32)CCN1C(=O)N1c2ccccc2CCc2ccccc21` [Compound C76, (S)-1,4-bis(10,11-dihydro-5H-dibenzo [b,f]azepine-5-carbonyl)piperazine-2-carboxylic acid]: the IC50 is 156 nM. Against the preceding compound, the IC50 is about 2.3-fold higher.

`CCN(Cc1ccccc1)C(=O)N1CCN(C(=O)N2c3ccccc3CC(=O)c3ccccc32)[C@H](C(=O)O)C1` [Compound C78, (S)-4-(benzyl(ethyl)carbamoyl)-1-(10-oxo-10,11-dihydro-5H-dibenzo [b,f]azepine-5-carbonyl) piperazine-2-carboxylic acid] came in with an IC50 of 88.2 nM.

`CCN(Cc1ccsc1)C(=O)N1CCN(C(=O)N2c3ccccc3CC(=O)c3ccccc32)[C@H](C(=O)O)C1` [Compound C79, (S)-4-(ethyl (thiophene-3-ylmethyl)carbamoyl)-1-(10-oxo-10,ll-dihydro-5H-dibenzo[b,f]azepine-5-carbonyl) piperazine-2-carboxylic acid]: the IC50 was found to be 460 nM.

As to `O=C(O)[C@@H]1CN(C(=O)C2(c3ccccc3)CCCC2)CCN1C(=O)N(c1ccccc1)c1ccccc1` [Compound C83, (S)-1-(diphenylcarbamoyl)-4-(1-phenylcyclopentanecarbonyl) piperazine-2-carboxylic acid], the IC50 was 6.35 nM. Compared with the last compound, the IC50 is about 72-fold lower.

Compound `O=C(O)[C@@H]1CN(C(=O)N(c2ccccc2)c2ccccc2)CCN1C(=O)C1(O)c2ccccc2-c2ccccc21` [Compound C85, (S)-4-(diphenylcarbamoyl)-1-(9-hydroxy-9H-fluorene-9-carbonyl)piperazine-2-carboxylic acid] gave an IC50 of 461 nM.

Compound `O=C(O)[C@@H]1CN(C(=O)OCc2ccccc2)CCN1C(=O)C1(c2ccccc2)CCCCC1` [Compound C86, (S)-4-((benzyloxy)carbonyl)-1-(1-phenylcyclohexanecarbonyl) piperazine-2-carboxylic acid] returned a half-maximal inhibitory concentration (IC50) of 504 nM.

For `CN(Cc1ccccc1)C(=O)N1CCN(C(=O)C2(c3ccccc3)CCCCC2)[C@H](C(=O)O)C1` [Compound C87, (S)-4-(benzyl(methyl)carbamoyl)-1-(1-phenylcyclohexanecarbonyl) piperazine-2-carboxylic acid], the IC50 stood at 389 nM.

In turn, `CN(Cc1ccccc1)C(=O)N1CCN(C(=O)N2c3ccccc3C=Cc3ccccc32)[C@H](C(=O)O)C1` [Compound C88, (S)-4-(benzyl(methyl)carbamoyl)-1-(5H-dibenzo[b,f]azepine-5-carbonyl) piperazine-2-carboxylic acid] returned an IC50 of 387 nM. The IC50 values of the last two compounds are within 1.5-fold of each other.

`O=C1Cc2ccccc2N(C(=O)N2CCN(C(=O)N(c3ccccc3F)c3ccccc3F)C[C@H]2C(=O)O)c2ccccc21` [Compound C91, (S)-4-(bis(2-fluophenyl)carbamoyl)-1-(10-oxo-10,11-dihydro-5H-dibenzo [b,f]azepine-5-carbonyl)piperazine-2-carboxylic acid] registered an IC50 of 30.7 nM. Against the preceding compound, the IC50 is about 13-fold lower.

The compound `CN1C(=O)c2ccccc2N(C(=O)N2CCN(C(=O)N(c3ccccc3)c3ccccc3)C[C@H]2C(=O)O)c2ccccc21` [Compound C96] showed an IC50 of 13.1 nM.

`COc1ccccc1N(C(=O)N1CCN(C(=O)N2c3ccccc3C(=O)N(C)c3ccccc32)[C@H](C(=O)O)C1)c1ccccc1OC` [Compound C97, (S)-4-(bis(2-methoxyphenyl)carbamoyl)-1-(10-methyl-11-oxo-10,11-dihydro-5H-dibenzo [b,e][1,4]diazepine-5-carbonyl)piperazine-2-carboxylic acid] had an IC50 of 138 nM.

Take `CCN1C(=O)c2ccccc2N(C(=O)N2CCN(C(=O)N(c3ccccc3)c3ccccc3)C[C@H]2C(=O)O)c2ccccc21` [Compound C98, (S)-4-(diphenylcarbamoyl)-1-(10-ethyl-11-oxo-10,11-dihydro-5H-dibenzo[b,e][1,4]diazepine-5-carbonyl) piperazine-2-carboxylic acid]: the IC50 was 8.18 nM.

As for `CN(C)S(=O)(=O)NC(=O)[C@@H]1CN(C(=O)N(c2ccccc2)c2ccccc2)CCN1C(=O)N1c2ccccc2CC(=O)c2ccccc21` [Compound C103], the IC50 is 334 nM.

Consider `O=C1Cc2ccccc2N(C(=O)N2CCN(C(=O)N(c3ccccc3)c3ccccc3)C[C@H]2c2nn[nH]n2)c2ccccc21` [Compound C104, (S)-4-(10-oxo-10,11-dihydro-5H-dibenzo[b,f]azepine-5-carbonyl)-N, N-diphenyl-3-(1H-tetrazol-5-yl)piperazine-1-carboxamide], for which the IC50 came to 298 nM. The IC50 values of the last two compounds are within 1.5-fold of each other.

With `O=C1Cc2ccccc2N(C(=O)N2CCN(C(=O)N(c3ccc(F)cc3)c3ccc(F)cc3)C[C@H]2C(=O)O)c2ccccc21` [Compound C105, (S)-4-(bis(4-fluorinephenyl)carbamoyl)-1-(10-oxo-10,11-dihydro-5H-dibenzo [b,f]azepine-5-carbonyl)piperazine-2-carboxylic acid], the IC50 amounted to 161 nM.

`CC(C(=O)N1CCN(C(=O)N2c3ccccc3CC(=O)c3ccccc32)[C@H](C(=O)O)C1)(c1ccccc1)c1ccccc1` [Compound C106, (S)-4-(2,2-diphenylpropionyl)-1-(10-oxo-10,11-dihydro-5H-dibenzo [b,f]azepine-5-carbonyl) piperazine-2-carboxylic acid] gave an IC50 of 282 nM.

Consider `COc1cccc(N(C(=O)N2CCN(C(=O)N3c4ccccc4CC(=O)c4ccccc43)[C@H](C(=O)O)C2)c2cccc(OC)c2)c1` [Compound C108, (S)-4-(bis(3-methoxylphenyl)carbamoyl)-1-(10-oxo-10,11-dihydro-5H-dibenzo [b,f]azepine-5-carbonyl)piperazine-2-carboxylic acid], for which the IC50 was 51.1 nM.

As to `COc1ccccc1N(C(=O)N1CCN(C(=O)N2c3ccccc3CC(=O)c3ccccc32)[C@H](C(=O)NS(=O)(=O)N(C)C)C1)c1ccccc1OC` [Compound C111, (S)-N^3-(N,N-dimethylsulphamoyl)-N^1,N^1-bis (2-methoxyphenyl)-4-(10-oxo-10,11-dihydro-5H-dibenzo[b,f]azepine-5-carbonyl) piperazine-1,3-dicarboxamide], the 50% inhibitory concentration (IC50) came to 229 nM.

`COc1ccccc1N(C(=O)N1CCN(C(=O)N2c3ccccc3C=Cc3ccccc32)[C@H](C(=O)O)C1)c1ccccc1` [Compound C113, (S)-1-(5H-dibenzo[b,f]azepine-5-carbonyl)-4-((2-methoxylphenyl) (phenyl)carbamoyl) piperazine-2-carboxylic acid] showed an IC50 of 7.37 nM.

The compound `O=C1Cc2ccccc2N(C(=O)N2CCN(C(=O)N(c3ccccc3)c3ccccc3)C[C@H]2C(=O)NO)c2ccccc21` [Compound C123] gave an IC50 of 503 nM.

Regarding `O=C(O)[C@@H]1CN(C(=O)N2CCC[C@@H]2c2ccccc2)CCN1C(=O)N(c1ccccc1)c1ccccc1` [Compound C128, (S)-1-(diphenylcarbamoyl)-4-((R)-2-phenylpyrrolidine-1-carbonyl) piperazine-2-carboxylic acid], the IC50 turned out to be 12.4 nM.

`O=C(O)[C@@H]1CN(C(=O)N(c2ccccc2)c2ccccc2)CCN1C(=O)N1CCC[C@H]1c1ccccc1` [Compound C129, (S)-4-(diphenylcarbamoyl)-1-((S)-2-phenylpyrrolidinyl-1-carbonyl)piperazine-2-carboxylic acid] registered an IC50 of 98.6 nM.

On to `CN(Cc1ccccc1)C(=O)N1CCN(C(=O)C(C)(c2ccccc2)c2ccccc2)[C@H](C(=O)O)C1` [Compound C133, (S)-4-(benzyl(methyl)carbamoyl)-1-(2,2-diphenylpropionyl) piperazine-2-carboxylic acid], for which the IC50 worked out at 24.3 nM.

`CCN(Cc1ccc(C)s1)C(=O)N1CCN(C(=O)N(c2ccccc2)c2ccccc2)[C@H](C(=O)O)C1` [Compound C134, (S)-1-(diphenylcarbamoyl)-4-(ethyl((5-methylthiophen-2-yl)methyl)carbamoyl) piperazine-2-carboxylic acid] registered an IC50 of 18.5 nM.

In turn, `Cc1ccc(CN(C)C(=O)N2CCN(C(=O)N(c3ccccc3)c3ccccc3)[C@H](C(=O)O)C2)s1` [Compound C135, (S)-1-(diphenylcarbamoyl)-4-(methyl((5-methylthiophen-2-yl)methyl)carbamoyl)piperazine-2-carboxylic acid] yielded an IC50 of 28.2 nM.

With `CCN(Cc1csc(C)c1)C(=O)N1CCN(C(=O)N(c2ccccc2)c2ccccc2)[C@H](C(=O)O)C1` [Compound C137, (S)-1-(diphenylcarbamoyl)-4-(ethyl((5-methylthiophen-3-yl)methyl)carbamoyl) piperazine-2-carboxylic acid], the IC50 was 36.5 nM. This IC50 and that of the compound before are within 1.5-fold of each other.

`O=C(O)[C@@H]1CN(C(=O)OCc2cccs2)CCN1C(=O)N(c1ccccc1)c1ccccc1` [Compound C140, (S)-1-(diphenylcarbamoyl)-4-((thiophene-2-ylmethoxy)carbonyl) piperazine-2-carboxylic acid] registered an IC50 of 331 nM.

For `Cc1cc(CN(C)C(=O)N2CCN(C(=O)N(c3ccccc3)c3ccccc3)[C@H](C(=O)O)C2)sc1C` [Compound C144, (S)-4-(((4,5-dimethylthiophen-2-yl)methyl)(methyl)carbamoyl)-1-(diphenylcarbamoyl) piperazine-2-carboxylic acid], the IC50 turned out to be 98.1 nM.

One may read the IC50 as the concentration needed to halve the response being measured.
